Earlier results, collected in patent publication US20100029716A1, “NOVEL 1,2,3,4- TETRAHYDROQUINOLINE DERIVATIVES” (CONCERT PHARMACEUTICALS, INC., priority 2006, published 2010).

Experiments:
[1] = healthy volunteers, 14-day dosing period
[2] = molecular target: T1, human CETP (Homo sapiens, UniProt P11597); details: transgenic hCETP mice
T1 construct: host or cells: transgenic mice expressing human CETP and apolipoprotein A1 (hCETP mice)
T1 sequence (P11597 18-493): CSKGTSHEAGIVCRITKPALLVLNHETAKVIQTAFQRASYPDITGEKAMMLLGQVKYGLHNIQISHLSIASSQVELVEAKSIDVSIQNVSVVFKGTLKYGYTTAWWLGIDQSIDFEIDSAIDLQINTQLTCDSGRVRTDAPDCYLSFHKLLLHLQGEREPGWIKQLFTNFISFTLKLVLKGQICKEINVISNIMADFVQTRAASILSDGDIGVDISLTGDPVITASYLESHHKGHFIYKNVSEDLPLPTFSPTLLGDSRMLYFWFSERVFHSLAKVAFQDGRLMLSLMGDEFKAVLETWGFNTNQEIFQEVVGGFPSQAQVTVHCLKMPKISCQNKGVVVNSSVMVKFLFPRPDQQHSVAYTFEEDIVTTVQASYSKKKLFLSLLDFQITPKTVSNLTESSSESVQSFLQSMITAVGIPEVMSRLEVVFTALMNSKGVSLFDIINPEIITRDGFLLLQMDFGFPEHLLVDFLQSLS

[3] = tested on: atherosclerotic lesions; details: rabbit model of atherosclerosis
[4] = conventional formulations

Question: For CCOC(=O)N1c2ccc(C(F)(F)F)cc2[C@@H](N(Cc2cc(C(F)(F)F)cc(C(F)(F)F)c2)C(=O)OC)C[C@H]1CC [Compound 1, (2R,4S)-ethyl 4-((3,5-bis(trifluoromethyl)benzyl)-(methoxycarbonyl)amino)-2-ethyl-6-(trifluoromethyl)-3,4-dihydroquinoline-1(2H)-carboxylate], which “increase of HDL cholesterol levels” value [1] is on record?
Answer: The value was “up to 91%”.

Question: And the “reduction of LDL cholesterol” value [1]?
Answer: The value was “up to 42%”.

Question: And the “rate of cholesterol oleate transfer from LDL donor particles to HDL” value [2]?
Answer: Its value is “decreased rates”.

Question: And the HDL cholesterol ([2]; multiple dosing)?
Answer: Its HDL cholesterol is “increased HDL cholesterol”.

Question: And the “formation of atherosclerotic lesions” value [3]?
Answer: The value was “reduce the formation of atherosclerotic lesions”.

Question: And the aqueous solubility?
Answer: The aqueous solubility was “poor”.

Question: And the oral bioavailability [4]?
Answer: The oral bioavailability was “low”.
